In one assay the test system is PARylation in Lovo cells. The assay is described as follows: PARylation inhibition in Lovo cells. Format: cell-based. Conditions: Homo sapiens, 25 mM H2O2. How it is done: Experimental materials: test compounds, F12K medium, Lovo cells, Anti-Poly (ADP-ribose) mouse monoclonal antibody; FITC-labeled goat anti-mouse IgG; hydrogen peroxide; DAPI; PBS; methanol; acetone; Tween-20; skimmed milk powder; Envision Multimode Plate Reader.
Day One: Lovo cells were seeded on a plate at 60,000 cells/well, and then incubated overnight at 37° C./5% CO2.
1. Washing solution: Tween-20 was added to 1×PBS, and the final concentration of Tween-20 was 0.05%.
2. Blocking solution: Skimmed milk powder was added to the washing solution, and the final concentration of the skimmed milk powder was 5%.
3. Cell immobilization solution: Methanol and acetone were mixed in a ratio of 7:3.
Preparation of test compounds: Compound intermediate plate 1: The compound was diluted to final concentrations of 10 μM to 0.13 nM with DMSO and PBS, and the concentration of DMSO was 1%; Compound intermediate plate 2: The compound was diluted to final concentrations of 10 μM to 0.13 nM with DMSO and PBS containing 50 mM hydrogen peroxide, and the concentration of DMSO was 1%.
1. […]
10. […] After removal of the liquid, corresponding fluorescence values were read on Envision: FITC: 480 nm and 530 nm; DAPI: 360 nm and 460 nm. […]

The target of a further assay is CYP1A2 (Homo sapiens (Human), UniProt P05177). Briefly: Inhibition against cytochrome P450 isoenzymes, CYP1A2. The class given is in vitro ADME. Conditions: human liver microsomes. How it is done: (§1) The inhibition of the test compound against different subtypes of the human cytochrome P450 isoenzyme was determined. The test compound, a standard inhibitor (100×final concentration) and a mixed substrate working solution were prepared; the microsomes frozen in a refrigerator at −80° C. were taken out and thawed. […]
Sequence of CYP1A2 (P05177 whole entry): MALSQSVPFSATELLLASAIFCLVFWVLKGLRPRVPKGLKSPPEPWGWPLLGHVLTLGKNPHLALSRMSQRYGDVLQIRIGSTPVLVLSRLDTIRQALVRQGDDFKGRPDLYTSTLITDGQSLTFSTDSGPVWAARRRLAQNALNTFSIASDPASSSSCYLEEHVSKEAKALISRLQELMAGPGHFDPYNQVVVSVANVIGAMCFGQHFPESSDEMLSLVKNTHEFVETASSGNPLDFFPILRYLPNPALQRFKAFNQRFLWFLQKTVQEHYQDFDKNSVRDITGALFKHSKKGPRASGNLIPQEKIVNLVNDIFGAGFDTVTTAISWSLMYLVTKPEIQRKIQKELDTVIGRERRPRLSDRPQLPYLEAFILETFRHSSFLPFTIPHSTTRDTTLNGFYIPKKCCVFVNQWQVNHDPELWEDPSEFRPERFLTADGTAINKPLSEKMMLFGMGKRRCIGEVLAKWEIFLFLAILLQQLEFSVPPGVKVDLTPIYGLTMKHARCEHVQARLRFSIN

In another assay the target is CYP3A4-M (Homo sapiens (Human), UniProt P08684). The assay is described as follows: Inhibition against cytochrome P450 isoenzymes, CYP3A4-M. Particulars: human liver microsomes. Format: in vitro ADME. How it is done: as §1
Sequence of CYP3A4-M (P08684 whole entry): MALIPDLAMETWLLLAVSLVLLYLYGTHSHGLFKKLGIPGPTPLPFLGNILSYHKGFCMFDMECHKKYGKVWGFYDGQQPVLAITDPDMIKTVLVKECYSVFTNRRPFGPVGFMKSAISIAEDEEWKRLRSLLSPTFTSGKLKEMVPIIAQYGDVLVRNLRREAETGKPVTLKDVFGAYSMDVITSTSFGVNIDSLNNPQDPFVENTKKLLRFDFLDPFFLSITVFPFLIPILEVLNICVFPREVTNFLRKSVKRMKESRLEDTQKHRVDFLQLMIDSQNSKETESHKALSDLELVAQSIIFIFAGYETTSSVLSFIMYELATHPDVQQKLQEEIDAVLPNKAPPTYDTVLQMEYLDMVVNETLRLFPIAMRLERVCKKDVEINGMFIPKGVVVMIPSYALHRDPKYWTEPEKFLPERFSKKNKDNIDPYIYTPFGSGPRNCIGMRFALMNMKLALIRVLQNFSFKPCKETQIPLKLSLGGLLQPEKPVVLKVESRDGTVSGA
For orientation: Microsomes from liver hold many membrane-bound enzymes, among them those of drug oxidation.

Assay [1] deals with MDA-MB-231 cells with wild-type BRCA. The assay is described as follows: Anti-proliferation study on MDA-MB-231 cells (CellTiter-Glo). The class given is cell-based. Particulars: Homo sapiens, MDA-MB-231, 72 h; 3 days incubation. How it is done: Materials: test compounds; R DMEM medium; fetal bovine serum; penicillin/streptomycin antibiotic; MDA-MB-231 cells; Envision Multimode Plate Reader.
MDA-MB-231 cells were seeded in a white 96-well plate by adding 80 μL of cell suspension (containing 5000 MDA-MB-231 cells) to each well. The cell plate was incubated in a CO2 incubator overnight.
Eight concentrations were set for each compound. The test compounds were serially 3-fold diluted to the 8th concentration with a multichannel pipette, i.e., from 2 mM to 920 nM, in duplicate. 78 μL of medium was added to an intermediate plate, and the serially diluted compound was transferred to the intermediate plate at 2 μL per well. After being mixed well, the mixture was transferred to the cell plate at 20 μL per well. […] Another cell plate was provided for reading signal values on the day of compound addition and these signal values were used as Max values in data analysis. Promega CellTiter-Glo was added to the cell plate at 25 μL per well and the luminescence signals were stabilized by incubation for 10 min at room temperature. Readings were taken using a PerkinElmer Envision Multimode Plate Reader.
Promega CellTiter-Glo was added to the cell plate at 25 μL per well and the luminescence signals were stabilized by incubation for 10 min at room temperature. Readings were taken using a PerkinElmer Envision Multimode Plate Reader. […]

Bounds are passed on as bounds.

Turning to `C[C@]1(c2ccc(-c3[nH]c4cc(F)cc5c4c3CONC5=O)cc2)CCCN1` [Compound 1], the IC50 (in general, the midpoint of a concentration-inhibition curve) was 0.019 µM with PARylation in Lovo cells, more than 50 µM on CYP1A2, 32.9 µM against CYP3A4-M and more than 10 µM in assay [1].

These data come from patent US20230331739A1, “INDOLO HEPTAMYL OXIME ANALOG CRYSTAL AS PARP INHIBITOR AND METHOD FOR PREPARING SAME” (CHIA TAI TIANQING PHARMACEUTICAL GROUP CO., LTD., priority 2020, published 2023).
